Key:
[1] = target: T1, FRAP1 (mTOR) kinase (Homo sapiens, UniProt P42345); assay: Inhibition of mTOR-induced p-4E-BP1 phosphorylation (TR-FRET mTOR Activity Kit; Invitrogen); assay type: biochemical; conditions: 400 nM GFP-4E-BP1 substrate, ~150 ng/mL mTOR, one hour at room temperature
T1 construct: purchased Invitrogen PV4753
Description: Inhibition of mTOR-Induced p-4E-BP1 Phosphorylation (TR-FRET mTOR Activity Kit; Invitrogen)
• GFP-4E-BP1 substrate; Invitrogen order no. PV4759 • Lanthascreen Tb-anti-p4E-BP1 (pThr46) Antibody Kit; Invitrogen order no. PV4758 • FRAP1 (mTOR) kinase; Invitrogen order no. […] Preparation of Reagents: Note: Thaw and keep mTOR, the substrate, ATP, and the antibody on ice prior to making working dilutions. Working dilutions of these components can be kept at room temperature for short periods of time the day of use. 1. Add 2 ml of 5× Assay Buffer to 8 ml water to prepare 10 ml of 1× Assay Buffer. Note: The concentration of 1× Assay Buffer is 50 mM HEPES pH 7.5, 0.01% Polysorbate 20, 1 mM EGTA, and 10 mM MnCl2. 2. Prepare Antibody/EDTA Solution by first adding 2.75 n1 of Tb-anti p4E-BP1 Antibody to 2397 n1 of LanthaScreen™ TR-FRET Dilution Buffer. Then, add 100 n1 of 0.5 M EDTA. 3. Prepare 4× Substrate/Enzyme Solution by first adding 72 n1 of GFP-4E-BP1 (22 nM) to 926 n1 of 1× Assay Buffer. Then, add 1.6 n1 of mTOR (0.45 mg/mL). 4. Prepare ATP Solution by adding 3.2 n1 of 10 mM ATP to 1997 n1 of 1× Assay Buffer. Serial Dilution of Inhibitors (16 Point Curve): Note: It is recommended that inhibitors be serially diluted in DMSO, then diluted to a 4× working concentration with 1× Assay Buffer. The below procedure describes dilution of compounds in a 96-well format prior to transfer to a 384-well format for kinase assays. This procedure calls for dilution of the compounds in 2 adjacent columns of a 96-well plate, which upon transfer to a single column of a 384-well plate with an 8-channel pipette will align the samples in order of concentration. 1. Dispense 40 n1 of DMSO to two adjacent columns of a 96 well plate per compound (e.g. columns 1 and 2). 2. Add 10 n1 of inhibitor stock (10 mM) to the first well of the first column (A1) and mix. 3. Remove 10 n1 from A1 and transfer to the adjacent well in the next column (B1) and mix. 4. Remove 10 n1 from B1 and transfer to the next well in the first column (B2) and mix. 5. Repeat this dilution pattern through well H1 and leave the last well (H2) as DMSO only. 6. Remove 4 n1 of diluted compounds and add to 96 n1 of 1× Assay Buffer in a 96-well plate making 4× compound dilutions. Kinase Reaction: 1. Add 2.5 μl of 4× compound dilutions from the first column of the 96-well plate to every other well of column 1 of a 384-well plate with an 8-channel pipette. Repeat for columns 2 and 3. 2. Add 2.5 n1 of 4× compound dilutions from the second column of the 96-well plate to the empty wells of column 1 of the 384-well plate with an 8-channel pipette. Repeat for columns 2 and 3. Note: This procedure aligns the compound dilutions in order of concentration. 3. Add 2.5 n1 of 4× Enzyme/Substrate Solution to all columns 1-6. 4. Preincubate for 30 min. at RT (shaker). 5. Add 5 n1 of ATP Solution to all wells to start reactions. 6. Shake the assay plate on a plate shaker for 30 seconds. 7. Incubate the assay plate for one hour at room temperature (20-25° C.). Stop Step and Fluorescence Detection: 1. Add 10 n1 of Antibody/EDTA Solution to each well in columns 1-9. 2. Shake the assay plate on a plate shaker for 30 seconds. 3. Incubate the assay plate for one hour at room temperature (20-25° C.). 4. Measure the GFP (FRET) and terbium (reference) emission signals on a fluorescence plate reader (e.g. Perkin Elmer Envision). Data Analysis: 1. Calculate the emission ratio for each sample by dividing the GFP (FRET) signal by the terbium (reference) signal. 2. Plot the concentration of each compound versus the emission ratio. Determine the concentration of compound required to reach 50% of the maximum signal (IC50). Determination of IC50 values can be obtained by curve fitting (sigmoidal dose response, variable slope) using Prism software from GraphPad). Inhibition of Proliferation: CyQuant PC-3 Description: […]

[2] = system: PC-3 cells; assay: Inhibition of proliferation: CyQuant PC-3; assay type: cell-based; conditions: 72 h; PC-3 human prostate carcinoma cells, incubated with compounds for 3 days, CyQuant NF DNA dye
Description: • GFP-4E-BP1 substrate; Invitrogen order no. PV4759 • Lanthascreen Tb-anti-p4E-BP1 (pThr46) Antibody Kit; Invitrogen order no. PV4758 • FRAP1 (mTOR) kinase; Invitrogen order no. […] Preparation of Reagents: Note: Thaw and keep mTOR, the substrate, ATP, and the antibody on ice prior to making working dilutions. Working dilutions of these components can be kept at room temperature for short periods of time the day of use. 1. Add 2 ml of 5× Assay Buffer to 8 ml water to prepare 10 ml of 1× Assay Buffer. Note: The concentration of 1× Assay Buffer is 50 mM HEPES pH 7.5, 0.01% Polysorbate 20, 1 mM EGTA, and 10 mM MnCl2. 2. Prepare Antibody/EDTA Solution by first adding 2.75 n1 of Tb-anti p4E-BP1 Antibody to 2397 n1 of LanthaScreen™ TR-FRET Dilution Buffer. Then, add 100 n1 of 0.5 M EDTA. 3. Prepare 4× Substrate/Enzyme Solution by first adding 72 n1 of GFP-4E-BP1 (22 nM) to 926 n1 of 1× Assay Buffer. Then, add 1.6 n1 of mTOR (0.45 mg/mL). 4. Prepare ATP Solution by adding 3.2 n1 of 10 mM ATP to 1997 n1 of 1× Assay Buffer. Serial Dilution of Inhibitors (16 Point Curve): Note: It is recommended that inhibitors be serially diluted in DMSO, then diluted to a 4× working concentration with 1× Assay Buffer. The below procedure describes dilution of compounds in a 96-well format prior to transfer to a 384-well format for kinase assays. This procedure calls for dilution of the compounds in 2 adjacent columns of a 96-well plate, which upon transfer to a single column of a 384-well plate with an 8-channel pipette will align the samples in order of concentration. 1. Dispense 40 n1 of DMSO to two adjacent columns of a 96 well plate per compound (e.g. columns 1 and 2). 2. Add 10 n1 of inhibitor stock (10 mM) to the first well of the first column (A1) and mix. 3. Remove 10 n1 from A1 and transfer to the adjacent well in the next column (B1) and mix. 4. Remove 10 n1 from B1 and transfer to the next well in the first column (B2) and mix. 5. Repeat this dilution pattern through well H1 and leave the last well (H2) as DMSO only. 6. Remove 4 n1 of diluted compounds and add to 96 n1 of 1× Assay Buffer in a 96-well plate making 4× compound dilutions. Kinase Reaction: 1. Add 2.5 μl of 4× compound dilutions from the first column of the 96-well plate to every other well of column 1 of a 384-well plate with an 8-channel pipette. Repeat for columns 2 and 3. 2. Add 2.5 n1 of 4× compound dilutions from the second column of the 96-well plate to the empty wells of column 1 of the 384-well plate with an 8-channel pipette. Repeat for columns 2 and 3. Note: This procedure aligns the compound dilutions in order of concentration. 3. Add 2.5 n1 of 4× Enzyme/Substrate Solution to all columns 1-6. 4. Preincubate for 30 min. at RT (shaker). 5. Add 5 n1 of ATP Solution to all wells to start reactions. 6. Shake the assay plate on a plate shaker for 30 seconds. 7. Incubate the assay plate for one hour at room temperature (20-25° C.). Stop Step and Fluorescence Detection: 1. Add 10 n1 of Antibody/EDTA Solution to each well in columns 1-9. 2. Shake the assay plate on a plate shaker for 30 seconds. 3. Incubate the assay plate for one hour at room temperature (20-25° C.). 4. Measure the GFP (FRET) and terbium (reference) emission signals on a fluorescence plate reader (e.g. Perkin Elmer Envision). Data Analysis: 1. Calculate the emission ratio for each sample by dividing the GFP (FRET) signal by the terbium (reference) signal. 2. Plot the concentration of each compound versus the emission ratio. Determine the concentration of compound required to reach 50% of the maximum signal (IC50). Determination of IC50 values can be obtained by curve fitting (sigmoidal dose response, variable slope) using Prism software from GraphPad). Inhibition of Proliferation: CyQuant PC-3 Description:
The CyQuant NF assay is based on measurement of cellular DNA content via fluorescent dye binding. Because cellular DNA content is highly regulated, it is closely proportional to cell number. […]

T1 sequence (P42345 1360-2549 limits assumed): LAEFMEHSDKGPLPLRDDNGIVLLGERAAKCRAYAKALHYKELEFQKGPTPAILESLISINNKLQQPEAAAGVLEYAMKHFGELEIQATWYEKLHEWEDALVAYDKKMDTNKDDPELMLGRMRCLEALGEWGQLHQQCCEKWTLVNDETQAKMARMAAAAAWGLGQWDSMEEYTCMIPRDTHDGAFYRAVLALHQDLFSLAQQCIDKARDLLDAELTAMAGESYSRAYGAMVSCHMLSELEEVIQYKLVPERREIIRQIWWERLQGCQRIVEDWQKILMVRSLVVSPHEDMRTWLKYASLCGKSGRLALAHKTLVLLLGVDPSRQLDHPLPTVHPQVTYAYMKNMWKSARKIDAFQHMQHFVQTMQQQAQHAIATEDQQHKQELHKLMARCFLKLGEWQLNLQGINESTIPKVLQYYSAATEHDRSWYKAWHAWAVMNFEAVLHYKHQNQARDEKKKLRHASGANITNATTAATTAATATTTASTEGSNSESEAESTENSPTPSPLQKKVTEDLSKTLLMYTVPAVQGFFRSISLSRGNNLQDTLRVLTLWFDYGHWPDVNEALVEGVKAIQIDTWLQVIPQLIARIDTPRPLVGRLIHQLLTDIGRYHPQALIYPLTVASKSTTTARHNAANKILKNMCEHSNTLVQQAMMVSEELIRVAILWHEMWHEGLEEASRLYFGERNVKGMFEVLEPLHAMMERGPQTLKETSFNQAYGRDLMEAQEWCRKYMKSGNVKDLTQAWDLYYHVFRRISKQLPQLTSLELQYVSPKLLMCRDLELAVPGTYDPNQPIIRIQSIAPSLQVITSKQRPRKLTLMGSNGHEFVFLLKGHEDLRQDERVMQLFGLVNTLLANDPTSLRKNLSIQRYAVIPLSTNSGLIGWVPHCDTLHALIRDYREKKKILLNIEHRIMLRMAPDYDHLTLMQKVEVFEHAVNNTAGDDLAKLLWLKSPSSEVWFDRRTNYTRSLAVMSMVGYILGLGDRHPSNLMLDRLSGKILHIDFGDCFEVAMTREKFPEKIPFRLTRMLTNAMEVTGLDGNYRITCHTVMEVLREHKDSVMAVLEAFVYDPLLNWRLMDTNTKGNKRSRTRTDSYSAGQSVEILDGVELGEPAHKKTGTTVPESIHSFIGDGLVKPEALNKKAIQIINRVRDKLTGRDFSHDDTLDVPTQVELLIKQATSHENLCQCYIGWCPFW

SMILES | IC50 [1] [µM] | EC50 [2] [µM]
CNc1ccc(-c2nn(C(C)C)c3c2CCCc2nc(NC(=O)N(C)C)sc2-3)cn1 [Example B-27] | 0.501 | 0.328
CC(=O)Nc1nc2c(s1)-c1c(c(-c3ccc(N)nc3)nn1-c1ccccc1F)CCC2 [Example B-62, N-[3-(6-Amino-pyridin-3-yl)-1-(2-fluoro-phenyl)-1,4,5,6-tetrahydro-9-thia-1,2,7-triaza-cyclopenta[e]azulen-8-yl]-acetamide] | 0.01 | 0.047
CC(=O)Nc1nc2c(s1)-c1c(c(-c3ccc(C)nc3)nn1-c1ccccc1F)CCC2 [Example B-17, N-[1-(2-Fluoro-phenyl)-3-(6-methyl-pyridin-3-yl)-1,4,5,6-tetrahydro-9-thia-1,2,7-triaza-cyclopenta[e]azulen-8-yl]-acetamide] | 0.053 | 0.114
CCn1nc(-c2ccc(N)nc2)c2c1-c1sc(NC(C)=O)nc1CCC2 [Example B-130, N-[3-(6-Amino-pyridin-3-yl)-1-ethyl-1,4,5,6-tetrahydro-9-thia-1,2,7-triaza-cyclopenta[e]azulen-8-yl]-acetamide] | 0.019 | 0.178
CC(=O)Nc1nc2c(s1)-c1c(c(-c3ccc(N)nc3)nn1C(C)C)CCC2 [Example B-66, N-[3-(6-Amino-pyridin-3-yl)-1-isopropyl-1,4,5,6-tetrahydro-9-thia-1,2,7-triaza-cyclopenta[e]azulen-8-yl]-acetamide] | 0.012 | 0.09
CNc1ccc(-c2nn(C3CCN(C4CC4)CC3)c3c2CCCc2nc(NC(=O)N(C)C)sc2-3)cn1 [Example B-57] | 0.07 | 0.147
CNc1ccc(-c2nn(-c3ccccc3C)c3c2CCCc2nc(NC(=O)N(C)C)sc2-3)cn1 [Example B-46] | 1.2 | 0.447
CNc1ccc(-c2nn(-c3ccncc3C)c3c2CCCc2nc(NC(C)=O)sc2-3)cn1 [Example B-85, N-[3-(6-Methylamino-pyridin-3-yl)-1-(3-methyl-pyridin-4-yl)-1,4,5,6-tetrahydro-9-thia-1,2,7-triaza-cyclopenta[e]azulen-8-yl]-acetamide] | 0.024 | 0.076
CN(C)C(=O)Nc1nc2c(s1)-c1c(c(-c3ccc(N)nc3)nn1-c1ccccc1)CCC2 [Example B-96, 3-[3-(6-Amino-pyridin-3-yl)-1-phenyl-1,4,5,6-tetrahydro-9-thia-1,2,7-triaza-cyclopenta[e]azulen-8-yl]-1,1-dimethyl-urea] | 0.067 | 0.289
CC(=O)Nc1nc2c(s1)-c1c(c(-c3ccc(N)nc3)nn1C1CCCOC1)CCC2 (stereo not drawn) [Example B-65, N-[3-(6-Amino-pyridin-3-yl)-1-(tetrahydro-pyran-3-yl)-1,4,5,6-tetrahydro-9-thia-1,2,7-triaza-cyclopenta[e]azulen-8-yl]-acetamide] | 0.013 | 0.075
CC(=O)Nc1nc2c(s1)-c1c(c(-c3c[nH]cn3)nn1-c1ccccc1F)CCC2 [Example B-111, N-[1-(2-Fluoro-phenyl)-3-(1H-imidazol-4-yl)-1,4,5,6-tetrahydro-9-thia-1,2,7-triaza-cyclopenta[e]azulen-8-yl]-acetamide] | 0.004 | 0.038
CCNc1ccc(-c2nn(-c3ccccc3CC)c3c2CCCc2nc(NC(C)=O)sc2-3)cn1 [Example B-79] | 0.065 | 0.062
CCn1nc(-c2ccc(NC)nc2)c2c1-c1sc(NC(=O)N(C)C)nc1CCC2 [Example B-48] | 0.451 | 0.71
CCCn1nc(-c2ccc(N)nc2)c2c1-c1sc(NC(C)=O)nc1CCC2 [Example B-131, N-[3-(6-Amino-pyridin-3-yl)-1-propyl-1,4,5,6-tetrahydro-9-thia-1,2,7-triaza-cyclopenta[e]azulen-8-yl]-acetamide] | 0.017 | 0.057
COCCn1nc(-c2ccc(N)nc2)c2c1-c1sc(NC(C)=O)nc1CCC2 [Example B-132, N-[3-(6-Amino-pyridin-3-yl)-1-(2-methoxy-ethyl)-1,4,5,6-tetrahydro-9-thia-1,2,7-triaza-cyclopenta[e]azulen-8-yl]-acetamide] | 0.052 | 0.326

Reference: US8288379B2, “Thia-triaza-cyclopentazulenes” (Boehringer Ingelheim International GmbH, priority 2009, dated 2012)
